Test: xn = mol fraction of the nth substance listed
Settings: 101 kPa

O=S(=O)([O-])NC1CCCCC1.[K+] + O
viscosity [mPa·s]
Settings	x1 = 0.0007156	x1 = 0.001095	x1 = 0.001452	x1 = 0.001751	x1 = 0.002086	x1 = 0.002528	x1 = 0.002966	x1 = 0.003212	x1 = 0.003506	x1 = 0.003747
293.15 K	1.021	1.031	1.041	1.049	1.058	1.072	1.085	1.091	1.101	1.107
298.15 K	0.9071	0.9163	0.9245	0.9318	0.9397	0.9515	0.9626	0.9683	0.9765	0.982
303.15 K	0.8126	0.8204	0.8278	0.8343	0.8412	0.8514	0.8611	0.866	0.873	0.8778
313.15 K	0.6648	0.6714	0.6773	0.6823	0.6878	0.6957	0.7032	0.7073	0.7127	0.7164
323.15 K	0.5565	0.5615	0.5663	0.5703	0.5748	0.5809	0.5873	0.5902	0.5948	0.5977

COCCOCCOCCOC + CCCCCCCO
Settings	viscosity [mPa·s]
293.15 K, x1 = 0.05281	5.682
293.15 K, x1 = 0.09018	5.069
293.15 K, x1 = 0.2084	3.662
293.15 K, x1 = 0.2924	3.185
293.15 K, x1 = 0.4036	2.821
293.15 K, x1 = 0.5165	2.541
293.15 K, x1 = 0.5861	2.393
293.15 K, x1 = 0.6984	2.25
293.15 K, x1 = 0.8022	2.21
293.15 K, x1 = 0.8977	2.195
293.15 K, x1 = 0.9591	2.185
303.15 K, x1 = 0.05495	4.164
303.15 K, x1 = 0.08973	3.734
303.15 K, x1 = 0.2069	2.83
303.15 K, x1 = 0.2951	2.469
303.15 K, x1 = 0.403	2.197
303.15 K, x1 = 0.504	2.013
303.15 K, x1 = 0.5851	1.916
303.15 K, x1 = 0.705	1.813
303.15 K, x1 = 0.7893	1.785
303.15 K, x1 = 0.9012	1.776
303.15 K, x1 = 0.9516	1.777
313.15 K, x1 = 0.0542	3.158
313.15 K, x1 = 0.09194	2.876
313.15 K, x1 = 0.2077	2.266
313.15 K, x1 = 0.2951	2
313.15 K, x1 = 0.4053	1.782
313.15 K, x1 = 0.5078	1.654
313.15 K, x1 = 0.59	1.579
313.15 K, x1 = 0.7035	1.515
313.15 K, x1 = 0.795	1.483
313.15 K, x1 = 0.9054	1.474
313.15 K, x1 = 0.9487	1.471

Reference: the CheMixHub viscosity set
